The nature of experiment [1]: Cytotoxicity against mouse Hepa-1c1c7 cells assessed as cell survival after 2 days by MTT assay. The class given is functional, cell-based. Conditions: Hepa-1c1c7, 48 h. (Tetrazolium dyes change colour on reduction, which living cells bring about.)
Experiment [2] is described as follows: Chemoprevention index, ratio of IC50 for mouse Hepa-1c1c7 cells to drug level required to double quinone reductase activity in mouse Hepa-1c1c7 cells. Type of experiment: functional.

The text below walks through data of ChEMBL document CHEMBL1158867, “Activity-guided isolation of constituents of Tephrosia purpurea with the potential to induce the phase II enzyme, quinone reductase” (J Nat Prod, 1997).

Usually IC50 stands for the concentration that inhibits the measured activity by half.

Turning to `Oc1ccc2c(c1)OC[C@H]1c3cc4c(cc3O[C@@H]21)OCO4` [MAACKIAIN], in experiment [1], the concentration for half-maximal inhibition (IC50) was more than 70.4 µM. The Ratio in experiment [2] is given as more than 8.
Consider `COc1cc2c(c(O)c1C(=O)/C=C/c1ccccc1)[C@H]1[C@@H](O2)OC(C)(C)[C@@H]1OC(C)=O` [TEPHROPURPURIN], for which the IC50 in experiment [1] stood at 13.4 µM. Moreover, in experiment [2], the Ratio was 89.
For `COc1c(O)ccc2c1OC[C@H]1c3cc4c(cc3O[C@@H]21)OCO4`, in that order: more than 63.7 µM and more than 4.4.
Take `C[S+]([O-])CCCCN=C=S` (stereo not drawn) [SULFORAPHANE]: the IC50 in experiment [1] worked out at 11 µM. The Ratio in experiment [2] came out at 25.
For the compound `O=c1cc(-c2ccccc2)oc2c1ccc1occc12` [LANCEOLATIN B], in experiment [1], the concentration for half-maximal inhibition (IC50) is more than 76.3 µM. Moreover, the Ratio in experiment [2] was more than 3.3.
For `COc1c(C(=O)/C=C(\O)c2ccccc2)ccc2occc12` [PONGAMOL], in that order: 18.7 µM and 3.1.
In the case of `COc1ccc2c(c1)O[C@H]1c3ccc(O)cc3OC[C@@H]21`, the half-inhibitory concentration (IC50) in experiment [1] was more than 74 µM. Further, the Ratio in experiment [2] is given as more than 5.4.
The like results for `COc1cc(-c2coc3cc(O)ccc3c2=O)cc(OC)c1O` were, in that order, more than 63.7 µM and more than 3.7.
For `COc1cc2c(c3c1C(=O)C[C@@H](c1ccccc1)O3)[C@H]1[C@@H](O2)OC(C)(C)[C@@H]1OC(C)=O`, in that order: more than 50.7 µM and more than 9.
